Assay results from ChEMBL document CHEMBL3885861, “Open TG-GATES”.

Organism: Rattus norvegicus
Assay: Open TG-GATES - Regimen: Single
Type: toxicity, organism-based, Sprague-Dawley
Set-up: regimen Single, gender Male, age 6 weeks
Conditions: in vivo, iv, route intravenous injection; for APTT / Bas / Eos / Fbg / Hb / Ht / Lym / MCH / MCHC / MCV / Mono / Neu / Plat / RBC / Ret / WBC / PT: tissue Blood; for KIDNEY_L / KIDNEY_R / KIDNEY_TOTAL: tissue Kidney; for LIVER: tissue Liver; for ALP / ALT / AST / CRE / Ca / DBIL / GLC / IP / K / Na / PL / RALB / TBIL / TC / TG / TP / gamma-GTP / BUN / LDH: tissue Plasma
[1] = 1 mg/kg, 9 h, dose level Middle
[2] = 1 mg/kg, 24 h, dose level Middle

## CISPLATIN
[1]
  TERMINAL_BW: 214.2 g
  APTT: 23.6 s
  Bas: 0%
  Eos: 0.4%
  Fbg: 267.8 mg/dL
  Hb: 12.7 g/dL
  Ht: 39.1%
  Lym: 81.8%
  MCH: 20.6 pg
  MCHC: 32.4%
  MCV: 63.7 fL
  Mono: 2.2%
  Neu: 15%
  Plat: 132.5 x10_4/uL
  RBC: 613.6 x10_4/ul
  Ret: 6.7%
  WBC: 93.8 x10_2/uL
  KIDNEY_L: 1 g
  KIDNEY_R: 1 g
  KIDNEY_TOTAL: 2 g
  LIVER: 9 g
  ALP: 1312 IU/L
  ALT: 39.2 IU/L
  AST: 73 IU/L
  CRE: 0.1 mg/dL
  Ca: 11 mg/dL
  DBIL: 0 mg/dL
  GLC: 179.2 mg/dL
  IP: 9.9 mg/dL
  K: 4.2 meq/L
  Na: 139.6 meq/L
  PL: 120.6 mg/dL
  RALB: 2.9 g/dL
  TBIL: 0.028 mg/dL
  TC: 67 mg/dL
  TG: 51.8 mg/dL
  TP: 5.3 g/dL
  gamma-GTP: 1.4 IU/L
[2]
  TERMINAL_BW: 213.8 g
  Bas: 0%
  Eos: 0.8%
  Fbg: 329 mg/dL
  MCH: 21 pg
  MCHC: 32.9%
  MCV: 63.9 fL
  Mono: 3%
  Neu: 16%
  PT: 16 s
  Plat: 128.4 x10_4/uL
  RBC: 631.8 x10_4/ul
  Ret: 5.2%
  WBC: 100.8 x10_2/uL
  KIDNEY_L: 1 g
  KIDNEY_R: 1 g
  KIDNEY_TOTAL: 2.1 g
  ALT: 46 IU/L
  BUN: 15.4 mg/dL
  CRE: 0.2 mg/dL
  DBIL: 0 mg/dL
  GLC: 183.2 mg/dL
  IP: 7.7 mg/dL
  K: 4.4 meq/L
  LDH: 163.4 IU/L
  PL: 143.6 mg/dL
  RALB: 3.1 g/dL
  TBIL: 0.014 mg/dL
  TC: 78.6 mg/dL
  TG: 85.8 mg/dL
  TP: 5.7 g/dL
  gamma-GTP: 1.6 IU/L
3 mg/kg, 3 h, dose level High
  TERMINAL_BW: 219.6 g
  APTT: 22.3 s
  Bas: 0%
  Eos: 1%
  Fbg: 271 mg/dL
  Hb: 12.7 g/dL
  Ht: 39%
  Lym: 78.4%
  MCV: 65.3 fL
  Mono: 2.8%
  PT: 15.9 s
  Plat: 130.5 x10_4/uL
  RBC: 596.8 x10_4/ul
  Ret: 6.7%
  WBC: 97.6 x10_2/uL
  KIDNEY_L: 1 g
  KIDNEY_R: 1 g
  KIDNEY_TOTAL: 1.9 g
  LIVER: 9.7 g
  ALP: 1622.8 IU/L
  ALT: 43.4 IU/L
  AST: 80.6 IU/L
  CRE: 0.2 mg/dL
  DBIL: 0 mg/dL
  GLC: 177.6 mg/dL
  IP: 9 mg/dL
  K: 4.2 meq/L
  LDH: 166.2 IU/L
  Na: 139.4 meq/L
  PL: 115 mg/dL
  RALB: 2.8 g/dL
  TBIL: 0.026 mg/dL
  TC: 64.8 mg/dL
  TG: 63.6 mg/dL
  TP: 5.2 g/dL
  gamma-GTP: 1.6 IU/L
3 mg/kg, 6 h, dose level High
  TERMINAL_BW: 210.6 g
  APTT: 22 s
  Bas: 0%
  Eos: 0.8%
  Fbg: 280.6 mg/dL
  Hb: 12.9 g/dL
  Ht: 39.8%
  MCV: 64 fL
  Mono: 2.8%
  PT: 15.3 s
  Plat: 123.5 x10_4/uL
  RBC: 623.2 x10_4/ul
  Ret: 6.2%
  WBC: 89 x10_2/uL
  KIDNEY_L: 0.9 g
  KIDNEY_R: 0.9 g
  KIDNEY_TOTAL: 1.9 g
  LIVER: 9.1 g
  ALP: 1307.8 IU/L
  ALT: 42.6 IU/L
  AST: 81 IU/L
  CRE: 0.2 mg/dL
  DBIL: 0 mg/dL
  GLC: 177.2 mg/dL
  IP: 9.5 mg/dL
  K: 4.7 meq/L
  Na: 139 meq/L
  PL: 127.8 mg/dL
  RALB: 2.9 g/dL
  TBIL: 0 mg/dL
  TC: 75 mg/dL
  TG: 79.2 mg/dL
  TP: 5.3 g/dL
  gamma-GTP: 1.8 IU/L
3 mg/kg, 9 h, dose level High
  TERMINAL_BW: 213.7 g
  APTT: 22.3 s
  Bas: 0%
  Eos: 0.6%
  Fbg: 287.4 mg/dL
  Ht: 38.5%
  Lym: 79.8%
  MCHC: 32.7%
  Mono: 1.8%
  PT: 15.4 s
  Plat: 137.7 x10_4/uL
  RBC: 615.8 x10_4/ul
  Ret: 5.4%
  WBC: 60.5 x10_2/uL
  KIDNEY_L: 1 g
  KIDNEY_R: 1 g
  KIDNEY_TOTAL: 1.9 g
  LIVER: 8.6 g
  ALP: 1222.8 IU/L
  ALT: 37.8 IU/L
  AST: 73 IU/L
  BUN: 12 mg/dL
  CRE: 0.1 mg/dL
  Ca: 11 mg/dL
  DBIL: 0 mg/dL
  GLC: 178.6 mg/dL
  IP: 9.8 mg/dL
  K: 4.4 meq/L
  LDH: 133.4 IU/L
  Na: 140.2 meq/L
  PL: 124 mg/dL
  RALB: 3 g/dL
  TBIL: 0.024 mg/dL
  TC: 70.2 mg/dL
  TG: 57 mg/dL
  TP: 5.4 g/dL
  gamma-GTP: 1.8 IU/L
3 mg/kg, 24 h, dose level High
  TERMINAL_BW: 220 g
  APTT: 22.6 s
  Bas: 0%
  Eos: 0.6%
  Fbg: 297.2 mg/dL
  Ht: 40.2%
  Lym: 87%
  MCH: 21 pg
  MCHC: 33%
  MCV: 63.8 fL
  Mono: 2.8%
  Neu: 9.4%
  Plat: 134.6 x10_4/uL
  RBC: 629.2 x10_4/ul
  Ret: 3.9%
  WBC: 73 x10_2/uL
  KIDNEY_L: 1 g
  KIDNEY_R: 1 g
  KIDNEY_TOTAL: 2 g
  LIVER: 9.6 g
  ALP: 1429.2 IU/L
  ALT: 39 IU/L
  AST: 72.4 IU/L
  BUN: 16.2 mg/dL
  CRE: 0.2 mg/dL
  DBIL: 0 mg/dL
  GLC: 181 mg/dL
  IP: 8.3 mg/dL
  K: 4.3 meq/L
  Na: 140 meq/L
  PL: 147.2 mg/dL
  RALB: 3.1 g/dL
  TBIL: 0.024 mg/dL
  TC: 89.2 mg/dL
  TG: 51.8 mg/dL
  TP: 5.5 g/dL
  gamma-GTP: 1.8 IU/L
